“And” between values parts separate entries of the source, which are not always exact repeats. Equal entries are not always repeated. Where two headings read alike, the source gives them in different places.
Experiments:
MDM2 = biological target: T1, MDM2 (Homo sapiens, UniProt Q00987); experiment: Inhibition test of MDM2-P53 (GST-MDM2, Biotin-P53, Anti-GST-Tb, SA-XL665); format: binding
T1 construct: made in house
Outline: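 Binding was measured by TR-FRET with GST-MDM2 at 4 nM final in PBS with 0.1% BSA, 5 mM DTT and 1 mM AEBSF. Compounds were tested as twelve-point 5-fold dilutions and incubated with the detection mix for 90 min at 25 °C with shaking before plate-reader reading and curve fitting.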

[1] = Pharmacokinetics in ICR mice after intravenous and intragastric administration; format: in vivo; settings: for F*: PO 5 mg/kg vs IV 2 mg/kg; for MRT last: read-out: MRT(0-t); for MRT inf: read-out: MRT(0-∞); for Vd: read-out: Vz
Method: Experimental Example 3 Determination of the Pharmacokinetics of the Mdm2 Inhibitors of the Present Invention in Mice
ICR mice were used as the test animals, and the concentrations of the drugs in plasma of mice at different time points after intravenous administration and intragastric administration of the representative compounds were measured by a LC/MS/MS method, so as to study the pharmacokinetic behavior of the compounds of the present invention in mice and evaluate the pharmacokinetic characteristics thereof.
Some compounds prepared in Examples 1-180 of the present invention.
The control drug HDM201 was prepared by the method disclosed in patent No. CN104203952A.
Healthy adult ICR mice, male, 6-9 weeks old, weighing 20-30 g, purchased from Shanghai Xipuer-Bikai Laboratory Animal Co., Ltd., Animal Production License No.: SCXK (HU) 2013-0016
3.2.3 Preparation of Test Drugs
Intragastric or intravenous administration: an appropriate amount of sample was weighed, dissolved in 5% DMSO+40% PEG400+55% (10% HP-β-CD in Saline) to prepare a 0.5 mg/ml solution for intragastric or intravenous administration.
3.2.4 Administration of Test Drugs
Intravenous administration: for each test compound, 3 male ICR mice were administered intravenously at a dose of 2 mg/kg and an administration volume of […] after fasting overnight.
Intragastric administration: for each test compound, 3 male ICR mice were administered intragastrically at a dose of 5 mg/kg and an administration volume of […] after fasting overnight.
3.3 Experimental Operation
The collected plasma was stored at −80° C. before analysis. The plasma sample was analyzed by LC-MS/MS, and the sample was pretreated by protein precipitation method. The linear range of sample analysis was 1 to 2000 ng/ml. The lowest quantification limit was 1 ng/mL. WinNonlin (Pharsight, USA) was used to calculate the following pharmacokinetic parameters: area under the curve AUC(0-t), area under the curve AUC(0-∞), half-life t1/2, retention time MRT(0-∞), blood drug concentration Cmax, time taken to reach the peak blood drug concentration Tmax, bioavailability F, apparent volume of distribution Vz, and clearance rate CL.

[2] = tested on: human osteosarcoma cell line SJSA-1; experiment: Inhibition of proliferation of human osteosarcoma cell line SJSA-1 (DAPI staining, In Cell Analyzer); settings: Homo sapiens, SJSA-1, 72 h, read-out: IC50 (nM), inhibitory activity on proliferation of human osteosarcoma cell line SJSA-1, SJSA-1, incubated 72 h
[3] = IV 2 mg/kg, ICR mice, individual animal, 2 mg/kg
[4] = PO 5 mg/kg, ICR mice, individual animal, 5 mg/kg
[5] = male, ICR, mouse, plasma, iv, 2 mg/kg, IV 2 mg/kg, ICR mice, Mean
[6] = male, ICR, mouse, plasma, iv, 2 mg/kg, IV 2 mg/kg, ICR mice, Mean, read-out: AUC(0-t)
[7] = male, ICR, mouse, plasma, iv, 2 mg/kg, IV 2 mg/kg, ICR mice, Mean, read-out: Cmax
[8] = male, ICR, mouse, plasma, iv, 2 mg/kg, IV 2 mg/kg, ICR mice, Mean, read-out: Tmax
[9] = male, ICR, mouse, plasma, iv, 2 mg/kg, IV 2 mg/kg, ICR mice, Mean, read-out: t1/2 (converted)
[10] = male, ICR, mouse, plasma, iv, 2 mg/kg, IV 2 mg/kg, ICR mice, individual animal
[11] = male, ICR, mouse, plasma, iv, 2 mg/kg, IV 2 mg/kg, ICR mice, individual animal, read-out: AUC(0-t)
[12] = male, ICR, mouse, plasma, iv, 2 mg/kg, IV 2 mg/kg, ICR mice, individual animal, read-out: Cmax
[13] = male, ICR, mouse, plasma, iv, 2 mg/kg, IV 2 mg/kg, ICR mice, individual animal, read-out: Tmax
[14] = male, ICR, mouse, plasma, iv, 2 mg/kg, IV 2 mg/kg, ICR mice, individual animal, read-out: t1/2 (converted)
[15] = male, ICR, mouse, plasma, po, 5 mg/kg, PO 5 mg/kg, ICR mice, Mean
[16] = male, ICR, mouse, plasma, po, 5 mg/kg, PO 5 mg/kg, ICR mice, Mean, read-out: AUC(0-t)
[17] = male, ICR, mouse, plasma, po, 5 mg/kg, PO 5 mg/kg, ICR mice, Mean, read-out: Cmax
[18] = male, ICR, mouse, plasma, po, 5 mg/kg, PO 5 mg/kg, ICR mice, Mean, read-out: Tmax
[19] = male, ICR, mouse, plasma, po, 5 mg/kg, PO 5 mg/kg, ICR mice, Mean, read-out: t1/2 (converted)
[20] = male, ICR, mouse, plasma, po, 5 mg/kg, PO 5 mg/kg, ICR mice, individual animal
[21] = male, ICR, mouse, plasma, po, 5 mg/kg, PO 5 mg/kg, ICR mice, individual animal, read-out: AUC(0-t)
[22] = male, ICR, mouse, plasma, po, 5 mg/kg, PO 5 mg/kg, ICR mice, individual animal, read-out: Cmax
[23] = male, ICR, mouse, plasma, po, 5 mg/kg, PO 5 mg/kg, ICR mice, individual animal, read-out: Tmax
[24] = male, ICR, mouse, plasma, po, 5 mg/kg, PO 5 mg/kg, ICR mice, individual animal, read-out: t1/2 (converted)
[25] = male, ICR, mouse, plasma, po, 5 mg/kg, oral intragastric administration 5 mg/kg, read-out: AUC0-t

T1 sequence (Q00987 whole entry): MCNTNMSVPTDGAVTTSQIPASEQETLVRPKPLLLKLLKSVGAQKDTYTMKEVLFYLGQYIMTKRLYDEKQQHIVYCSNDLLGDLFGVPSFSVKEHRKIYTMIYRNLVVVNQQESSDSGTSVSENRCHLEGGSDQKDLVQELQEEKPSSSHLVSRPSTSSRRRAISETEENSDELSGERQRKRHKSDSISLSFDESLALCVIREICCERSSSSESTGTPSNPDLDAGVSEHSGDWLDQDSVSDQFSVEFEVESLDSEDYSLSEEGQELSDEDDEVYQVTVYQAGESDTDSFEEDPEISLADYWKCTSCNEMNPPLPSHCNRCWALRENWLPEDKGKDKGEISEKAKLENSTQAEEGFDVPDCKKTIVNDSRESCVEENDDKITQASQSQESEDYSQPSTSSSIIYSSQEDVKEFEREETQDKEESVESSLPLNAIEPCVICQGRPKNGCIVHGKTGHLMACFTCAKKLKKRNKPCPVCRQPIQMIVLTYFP

Compound: COc1ccc(-c2nc3c(n2C(C)C)[C@@]2(C(=O)Nc4cc(Cl)ccc42)N(c2cc(Cl)ccc2C)C3=O)c(OC)c1 [Example S-9, (S)-6-chloro-5′-(5-chloro-2-methylphenyl)-2′-(2,4-dimethoxyphenyl)-3′-isopropyl-3′H-spiro[dihydroindole-3,4′-pyrrolo[3,4-d]imidazole]-2,6′(5′H)-dione]
- IC50 (MDM2): 2.38 nM
- AUC(0-t) [1, 3]: 4107.04 ng·h/mL and 3334.44 ng·h/mL
- AUC(0-∞) [1, 3]: 4214.93 ng·h/mL and 3452.37 ng·h/mL
- CL [1, 3]: 7.9083 mL/min/kg and 9.6552 mL/min/kg
- Cmax [1, 3]: 1643.99 ng/mL and 1403.26 ng/mL
- MRT(0-t) [1, 3]: 1.47 h
- MRT(0-∞) [1, 3]: 1.63 h and 1.68 h
- Vz [1, 3]: 0.79338 L/kg and 1.05516 L/kg
- t1/2 [1, 3]: 1.16 h and 1.26 h
- F* ([1]; ICR mice): 79.30%
- AUC(0-t) [1, 4]: 8692.39 ng·h/mL and 6976.33 ng·h/mL
- AUC(0-∞) [1, 4]: 8911.44 ng·h/mL and 7048.92 ng·h/mL
- Cmax [1, 4]: 2009.05 ng/mL and 1914.07 ng/mL
- MRT(0-t) [1, 4]: 2.60 h and 2.68 h
- MRT(0-∞) [1, 4]: 2.78 h and 2.75 h
- Tmax [1, 4]: 1.00 h
- t1/2 [1, 4]: 1.44 h and 1.22 h
- AUC(0-inf) [1, 5]: 3830 ng·h/mL
- clearance [1, 5]: 8.76 mL/min/kg
- AUC(0-t) [1, 6]: 3700 ng·h/mL
- Cmax [1, 7]: 1440 ng/mL
- MRT last [1, 5]: 1.51 h
- MRT inf [1, 5]: 1.73 h
- Tmax [1, 8]: 0.083 h
- Vd [1, 5]: 0.968 L/kg
- half-life [1, 9]: 1.27 h
- AUC(0-inf) [1, 10]: 3830 ng·h/mL
- clearance [1, 10]: 8.7 mL/min/kg
- AUC(0-t) [1, 11]: 3650 ng·h/mL
- Cmax [1, 12]: 1270 ng/mL
- MRT last [1, 10]: 1.58 h
- MRT inf [1, 10]: 1.88 h
- Tmax [1, 13]: 0.08 h
- Vd [1, 10]: 1.05 L/kg
- half-life [1, 14]: 1.4 h
- AUC(0-inf) [1, 15]: 7510 ng·h/mL
- AUC(0-t) [1, 16]: 7330 ng·h/mL
- Cmax [1, 17]: 1760 ng/mL
- MRT last [1, 15]: 2.64 h
- MRT inf [1, 15]: 2.82 h
- Tmax [1, 18]: 1.33 h
- half-life [1, 19]: 1.41 h
- AUC(0-inf) [1, 20]: 6560 ng·h/mL
- AUC(0-t) [1, 21]: 6320 ng·h/mL
- Cmax [1, 22]: 1370 ng/mL
- MRT last [1, 20]: 2.65 h
- MRT inf [1, 20]: 2.92 h
- Tmax [1, 23]: 2 h
- half-life [1, 24]: 1.57 h
- AUC(0-t) [1, 25]: 7330 ng·h/mL
- IC50 [2]: 7.39 nM

Compound: COc1cc(OC)c(-c2nc3c(n2C(C)C)[C@@]2(C(=O)Nc4cc(Cl)ccc42)N(c2cc(Cl)ccc2C)C3=O)cn1 [Example S-11, (S)-6-chloro-5′-(5-chloro-2-methylphenyl)-2′-(4,6-dimethoxypyridin-3-yl)-3′-isopropyl-3′H-spiro[dihydroindole-3,4′-pyrrolo[3,4-d]imidazole]-2,6′(5′H)-dione]
- IC50 (MDM2): 1.58 nM
- AUC(0-t) [1, 3]: 3578.38 ng·h/mL and 4225.58 ng·h/mL
- AUC(0-∞) [1, 3]: 3680.24 ng·h/mL and 4820.40 ng·h/mL
- CL [1, 3]: 9.06 mL/min/kg and 6.92 mL/min/kg
- Cmax [1, 3]: 1376.51 ng/mL and 1519.69 ng/mL
- MRT(0-t) [1, 3]: 1.43 h and 1.81 h
- MRT(0-∞) [1, 3]: 1.61 h and 2.70 h
- Vz [1, 3]: 0.91 L/kg and 1.25 L/kg
- t1/2 [1, 3]: 2.09 h
- F* ([1]; ICR mice): 102.51%
- AUC(0-t) [1, 4]: 8536.56 ng·h/mL and 11568.40 ng·h/mL
- AUC(0-∞) [1, 4]: 8816.41 ng·h/mL and 11784.98 ng·h/mL
- Cmax [1, 4]: 1573.02 ng/mL and 2144.69 ng/mL
- MRT(0-t) [1, 4]: 2.87 h
- MRT(0-∞) [1, 4]: 3.11 h and 3.05 h
- Tmax [1, 4]: 2.00 h
- t1/2 [1, 4]: 1.55 h and 1.33 h
- AUC(0-inf) [1, 5]: 3920 ng·h/mL
- clearance [1, 5]: 8.74 mL/min/kg
- AUC(0-t) [1, 6]: 3660 ng·h/mL
- Cmax [1, 7]: 1400 ng/mL
- MRT last [1, 5]: 1.55 h
- MRT inf [1, 5]: 1.95 h
- Tmax [1, 8]: 0.5 h
- Vd [1, 5]: 1.06 L/kg
- half-life [1, 9]: 1.46 h
- AUC(0-inf) [1, 10]: 3250 ng·h/mL
- clearance [1, 10]: 10.3 mL/min/kg
- AUC(0-t) [1, 11]: 3170 ng·h/mL
- Cmax [1, 12]: 1300 ng/mL
- MRT last [1, 10]: 1.4 h
- MRT inf [1, 10]: 1.55 h
- Tmax [1, 13]: 0.5 h
- Vd [1, 10]: 1.02 L/kg
- half-life [1, 14]: 1.15 h
- AUC(0-inf) [1, 15]: 9790 ng·h/mL
- AUC(0-t) [1, 16]: 9370 ng·h/mL
- Cmax [1, 17]: 1790 ng/mL
- MRT last [1, 15]: 2.92 h
- MRT inf [1, 15]: 3.27 h
- Tmax [1, 18]: 1.33 h
- half-life [1, 19]: 1.69 h
- AUC(0-inf) [1, 20]: 8770 ng·h/mL
- AUC(0-t) [1, 21]: 8020 ng·h/mL
- Cmax [1, 22]: 1650 ng/mL
- MRT last [1, 20]: 2.96 h
- MRT inf [1, 20]: 3.66 h
- Tmax [1, 23]: 1 h
- half-life [1, 24]: 2.18 h
- AUC(0-t) [1, 25]: 9370 ng·h/mL
- half-life ([1]; male, ICR, mouse, plasma, po, 5 mg/kg, oral intragastric administration 5 mg/kg, read-out: half-life (converted)): 1.69 h
- bioavailability ([1]; male, ICR, mouse, plasma, oral intragastric administration 5 mg/kg, read-out: bioavailability): 103%
- IC50 [2]: 1.67 nM

Reference: US11339171B2, “MDM2 inhibitors” (Gan & Lee Pharmaceuticals, priority 2017, dated 2022)
